Measurements as given in ChEMBL document CHEMBL5528042, “Identification of Novel, Selective Ataxia-Telangiectasia Mutated Kinase Inhibitors with the Ability to Penetrate the Blood-Brain Barrier: The Discovery of AZD1390” (J Med Chem, 2024).
≈ marks a conversion by molar mass, not a printed value.

How the values were obtained:
[1] = Unbound brain to plasma drug concentration ratio in Cynomolgus monkey at iv administered as bolus injection measured at 4 to 90 mins by PET analysis; type: ADME, organism-based, Macaca fascicularis; settings: time 4-90 min, read-out: K(p,uu,brain)
[2] = Tmax in Cynomolgus monkey at iv administered as bolus injection measured at 4 to 90 mins by gamma counter analysis; type: ADME, organism-based, Macaca fascicularis; settings: in vivo, time 4-90 min
[3] = Unbound fraction in Cynomolgus monkey plasma at iv administered as bolus injection measured at 4 to 90 mins by PET analysis; type: ADME, organism-based, Macaca fascicularis; settings: time 4-90 min
[4] = Unbound fraction in Cynomolgus monkey brain at iv administered as bolus injection measured at 4 to 90 mins by PET analysis; type: ADME, organism-based, Macaca fascicularis; settings: time 4-90 min
[5] = biological target: Serine/threonine-protein kinase mTOR (Homo sapiens, UniProt P42345); assay: Inhibition of mTOR in human MDA-MB-468 cells incubated for 2.5 hrs by Alexa Fluor 488 staining based fluorescence analysis; type: cell-based
[6] = Intrinsic clearance in dog hepatocyte assessed per 10^6 cells; type: ADME, cell-based, Canis lupus familiaris; settings: hepatocytes, read-out: CLH
[7] = Plasma protein binding in human assessed as unbound fraction incubated for 16 hrs by equilibrium dialysis based UPLC-MS/MS analysis; type: ADME, cell-free
[8] = Intrinsic clearance in rat hepatocyte assessed per 10^6 cells; type: ADME, cell-based; settings: hepatocytes, read-out: CLH
[9] = Apparent permeability across apical to basolateral side in dog MDCKII-MDR1 cells overexpressing BCRP at 1 uM incubated for 90 mins by LC-MS/MS analysis; type: ADME, cell-based, Canis lupus familiaris, MDCK-MDR1
[10] = Bioavailability in rat at 1 mg/kg,po or 0.5 mg/kg,iv administration measured for 24 hrs by LC-MS/MS analysis; type: ADME, organism-based; settings: in vivo
[11] = Volume of distribution at steady state in dog at 2 mg/kg,po or 1 mg/kg,iv administration measured for 24 hrs by LC-MS/MS analysis; type: ADME, organism-based, Canis lupus familiaris; settings: in vivo
[12] = Intrinsic clearance in human hepatocyte assessed per 10^6 cells; type: ADME, cell-based; settings: hepatocytes, read-out: CLH
[13] = Volume of distribution at steady state in rat at 1 mg/kg,po or 0.5 mg/kg,iv administration measured for 24 hrs by LC-MS/MS analysis; type: ADME, organism-based; settings: in vivo
[14] = Aqueous solubility of the compound in pH 7.4; type: physicochemical; settings: buffer
[15] = Dissociation constant, pKa of compound; type: physicochemical
[16] = Half life in dog at 2 mg/kg,po or 1 mg/kg,iv administration measured for 24 hrs by LC-MS/MS analysis; type: ADME, organism-based, Canis lupus familiaris; settings: in vivo
[17] = Half life in rat at 1 mg/kg,po or 0.5 mg/kg,iv administration measured for 24 hrs by LC-MS/MS analysis; type: ADME, organism-based; settings: in vivo
[18] = Lipophilicity, logD of the compound at pH 7.4; type: physicochemical; settings: buffer
[19] = biological target: Phosphatidylinositol 4,5-bisphosphate 3-kinase catalytic subunit alpha isoform (Homo sapiens, UniProt P42336); assay: Inhibition of PI3Kalpha in human BT-474 cells incubated for 140 mins by ELISA; type: cell-based
Chain of Phosphatidylinositol 4,5-bisphosphate 3-kinase catalytic subunit alpha isoform (P42336 whole entry, canonical isoform): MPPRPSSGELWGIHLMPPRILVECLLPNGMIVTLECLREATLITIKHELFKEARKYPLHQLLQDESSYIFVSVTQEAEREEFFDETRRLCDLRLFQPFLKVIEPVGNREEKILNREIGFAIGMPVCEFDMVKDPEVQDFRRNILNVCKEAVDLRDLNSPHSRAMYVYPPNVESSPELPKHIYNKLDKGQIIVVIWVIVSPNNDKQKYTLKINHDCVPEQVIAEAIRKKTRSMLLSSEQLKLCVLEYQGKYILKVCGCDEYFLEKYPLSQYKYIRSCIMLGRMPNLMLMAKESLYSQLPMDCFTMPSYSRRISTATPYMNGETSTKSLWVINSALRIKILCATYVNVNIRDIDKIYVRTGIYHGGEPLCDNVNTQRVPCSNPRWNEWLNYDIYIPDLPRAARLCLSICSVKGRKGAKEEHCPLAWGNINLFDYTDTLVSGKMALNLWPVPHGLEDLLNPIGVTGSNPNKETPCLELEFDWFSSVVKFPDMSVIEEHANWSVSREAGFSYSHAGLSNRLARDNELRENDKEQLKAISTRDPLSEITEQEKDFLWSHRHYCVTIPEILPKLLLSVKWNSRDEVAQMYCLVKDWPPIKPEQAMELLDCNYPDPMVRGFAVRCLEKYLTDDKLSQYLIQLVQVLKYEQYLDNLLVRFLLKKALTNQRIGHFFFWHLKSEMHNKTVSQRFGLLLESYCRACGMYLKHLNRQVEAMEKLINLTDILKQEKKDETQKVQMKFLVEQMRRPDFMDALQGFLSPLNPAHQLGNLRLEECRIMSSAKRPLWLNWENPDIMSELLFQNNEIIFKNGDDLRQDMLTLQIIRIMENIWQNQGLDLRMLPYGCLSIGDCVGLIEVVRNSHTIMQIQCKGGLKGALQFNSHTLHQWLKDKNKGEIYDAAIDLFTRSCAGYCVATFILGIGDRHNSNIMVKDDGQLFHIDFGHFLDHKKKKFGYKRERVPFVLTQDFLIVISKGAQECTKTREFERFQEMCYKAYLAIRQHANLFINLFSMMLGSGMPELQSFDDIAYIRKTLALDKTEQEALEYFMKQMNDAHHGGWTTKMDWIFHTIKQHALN

[20] = Plasma protein binding in dog assessed as unbound fraction incubated for 16 hrs by equilibrium dialysis based UPLC-MS/MS analysis; type: ADME, cell-free, Canis lupus familiaris
[21] = Plasma protein binding in rat assessed as unbound fraction incubated for 16 hrs by equilibrium dialysis based UPLC-MS/MS analysis; type: ADME, cell-free
[22] = biological target: Serine-protein kinase ATM (Homo sapiens, UniProt Q13315); assay: Inhibition of ATM in human HT-29 cells incubated for 2 hrs by Alexa Fluor 488/Hoeschst staining based plate reader assay; type: cell-based
[23] = system: MDR1, BCRP; assay: Efflux ratio of apparent permeability across basolateral to apical side over apical to basolateral side in dog MDCKII-MDR1 cells overexpressing BCRP at 0.1 uM incubated for 90 mins by LC-MS/MS analysis; type: ADME, cell-based, Canis lupus familiaris, MDCK-MDR1
[24] = Apparent permeability across apical to basolateral side in dog MDCKII-MDR1 cells overexpressing BCRP at 0.1 uM incubated for 90 mins by LC-MS/MS analysis; type: ADME, cell-based, Canis lupus familiaris, MDCK-MDR1
[25] = system: MDR1, BCRP; assay: Efflux ratio of apparent permeability across basolateral to apical side over apical to basolateral side in dog MDCKII-MDR1 cells overexpressing BCRP at 1 uM incubated for 90 mins by LC-MS/MS analysis; type: ADME, cell-based, Canis lupus familiaris, MDCK-MDR1
[26] = biological target: Serine/threonine-protein kinase ATR (Homo sapiens, UniProt Q13535); assay: Inhibition of ATR in human HT-29 cells incubated for 2 hrs by Alexa Fluor 488/Hoeschst staining based plate reader assay; type: cell-based
Chain of Serine/threonine-protein kinase ATR (Q13535 whole entry): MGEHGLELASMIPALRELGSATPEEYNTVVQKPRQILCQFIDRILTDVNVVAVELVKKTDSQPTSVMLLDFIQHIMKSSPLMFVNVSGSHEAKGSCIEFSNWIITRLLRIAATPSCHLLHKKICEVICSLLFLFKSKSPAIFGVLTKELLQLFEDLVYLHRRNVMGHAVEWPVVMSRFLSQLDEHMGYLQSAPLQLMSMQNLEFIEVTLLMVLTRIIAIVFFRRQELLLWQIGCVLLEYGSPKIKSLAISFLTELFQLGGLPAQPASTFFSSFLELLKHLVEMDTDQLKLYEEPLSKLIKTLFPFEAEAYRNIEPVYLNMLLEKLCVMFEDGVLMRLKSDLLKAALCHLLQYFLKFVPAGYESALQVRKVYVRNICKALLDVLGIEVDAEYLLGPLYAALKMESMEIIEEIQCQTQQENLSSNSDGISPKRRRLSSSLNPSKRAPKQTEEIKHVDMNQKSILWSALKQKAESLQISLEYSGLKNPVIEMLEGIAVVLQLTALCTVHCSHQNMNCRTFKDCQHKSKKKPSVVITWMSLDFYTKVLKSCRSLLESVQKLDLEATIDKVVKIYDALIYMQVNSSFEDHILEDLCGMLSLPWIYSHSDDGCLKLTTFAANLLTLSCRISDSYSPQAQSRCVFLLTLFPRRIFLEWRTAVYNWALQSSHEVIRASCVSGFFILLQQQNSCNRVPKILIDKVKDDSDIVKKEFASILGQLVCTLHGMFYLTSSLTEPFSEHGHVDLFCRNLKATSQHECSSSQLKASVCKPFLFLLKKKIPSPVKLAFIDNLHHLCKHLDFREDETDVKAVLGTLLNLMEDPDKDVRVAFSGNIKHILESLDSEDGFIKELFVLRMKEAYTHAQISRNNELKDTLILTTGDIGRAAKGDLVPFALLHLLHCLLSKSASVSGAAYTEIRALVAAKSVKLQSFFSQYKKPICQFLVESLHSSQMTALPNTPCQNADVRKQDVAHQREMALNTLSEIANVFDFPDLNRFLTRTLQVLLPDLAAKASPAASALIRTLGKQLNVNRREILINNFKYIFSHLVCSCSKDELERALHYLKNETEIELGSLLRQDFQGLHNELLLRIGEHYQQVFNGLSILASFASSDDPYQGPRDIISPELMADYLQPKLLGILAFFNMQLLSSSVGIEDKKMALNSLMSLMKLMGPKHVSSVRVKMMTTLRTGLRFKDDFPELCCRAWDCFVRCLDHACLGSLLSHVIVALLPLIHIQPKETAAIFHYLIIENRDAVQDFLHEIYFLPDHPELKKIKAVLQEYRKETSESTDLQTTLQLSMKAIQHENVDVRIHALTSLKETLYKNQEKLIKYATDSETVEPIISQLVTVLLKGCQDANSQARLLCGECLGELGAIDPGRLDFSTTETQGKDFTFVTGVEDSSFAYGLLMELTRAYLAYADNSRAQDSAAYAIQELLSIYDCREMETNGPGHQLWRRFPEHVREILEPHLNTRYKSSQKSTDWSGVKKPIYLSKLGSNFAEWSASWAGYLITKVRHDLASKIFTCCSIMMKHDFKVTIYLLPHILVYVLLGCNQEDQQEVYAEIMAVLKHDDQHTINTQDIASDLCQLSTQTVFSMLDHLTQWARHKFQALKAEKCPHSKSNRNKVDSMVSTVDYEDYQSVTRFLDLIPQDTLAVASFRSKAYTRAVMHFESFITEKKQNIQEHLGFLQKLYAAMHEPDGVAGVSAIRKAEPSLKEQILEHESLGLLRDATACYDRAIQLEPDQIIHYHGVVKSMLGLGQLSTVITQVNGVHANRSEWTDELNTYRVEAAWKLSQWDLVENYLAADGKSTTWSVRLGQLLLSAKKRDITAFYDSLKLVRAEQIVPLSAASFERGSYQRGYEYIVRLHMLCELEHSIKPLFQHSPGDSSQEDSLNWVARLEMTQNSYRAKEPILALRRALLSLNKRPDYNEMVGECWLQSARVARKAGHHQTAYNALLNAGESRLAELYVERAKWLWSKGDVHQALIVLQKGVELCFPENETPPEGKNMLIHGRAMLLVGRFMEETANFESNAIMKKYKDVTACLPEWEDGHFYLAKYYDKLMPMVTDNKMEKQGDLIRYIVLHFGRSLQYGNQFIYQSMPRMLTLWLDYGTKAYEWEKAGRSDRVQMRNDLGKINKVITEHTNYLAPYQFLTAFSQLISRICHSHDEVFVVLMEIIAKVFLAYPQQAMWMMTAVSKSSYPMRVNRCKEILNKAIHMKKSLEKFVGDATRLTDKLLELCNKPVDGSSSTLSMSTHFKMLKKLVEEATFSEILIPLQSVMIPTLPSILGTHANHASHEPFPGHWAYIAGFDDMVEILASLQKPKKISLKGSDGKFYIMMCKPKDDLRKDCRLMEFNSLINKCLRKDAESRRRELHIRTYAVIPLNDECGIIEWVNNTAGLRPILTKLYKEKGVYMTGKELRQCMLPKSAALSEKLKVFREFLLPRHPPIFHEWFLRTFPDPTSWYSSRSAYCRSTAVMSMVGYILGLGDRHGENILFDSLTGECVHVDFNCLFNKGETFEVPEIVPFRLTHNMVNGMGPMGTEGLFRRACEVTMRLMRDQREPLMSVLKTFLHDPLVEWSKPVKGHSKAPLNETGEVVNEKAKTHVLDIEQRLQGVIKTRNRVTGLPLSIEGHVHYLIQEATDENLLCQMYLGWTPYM

[27] = Intrinsic clearance in human liver microsomes; type: ADME, Microsome; settings: read-out: CLH
[28] = Unbound brain to plasma drug concentration ratio in mouse at 50 mg/kg,po administration and measured after 2 hrs; type: ADME, organism-based; settings: read-out: K(p,uu,brain)

CC(C)n1c(=O)n([11CH3])c2cnc3cc(F)c(-c4ccc(OCCCN5CCCCC5)nc4)cc3c21
Kp uu [1]: 0.33
Tmax [2]: 9.3 min
fraction unbound [3]: 0.175
fraction unbound [4]: 0.01

CC(C)n1c(=O)n(C)c2cnc3ccc(-c4ccc(N5CC[C@@H](N(C)C)C5)nc4)cc3c21
IC50 [5]: 3160 nM
hepatocyte CLint [6]: 80 µL/min/1e6 cells
fraction unbound at 16 h [7]: 0.07
hepatocyte CLint [8]: 27 µL/min/1e6 cells
Papp A→B at […], 1 µM [9]: 27 ×10⁻⁶ cm/s
bioavailability [10]: 53%
Vdss [11]: 7.5 L/kg
hepatocyte CLint [12]: 4.5 µL/min/1e6 cells
Vdss [13]: 0.6 L/kg
solubility [14]: 22 µM (≈ 9.47 µg/mL)
pKa [15]: 7.9
half-life [16]: 1.6 h
half-life [17]: 2.9 h
logD [18]: 3
IC50 [19]: 316 nM
fraction unbound at 16 h [20]: 0.26
fraction unbound at 16 h [21]: 0.004

CC(C)n1c(=O)n(C)c2cnc3ccc(-c4ccc(OCCCN5CCCC5)nc4)cc3c21
IC50 [22]: 0.251 nM
efflux ratio at […], 0.1 µM [23]: 2.6
hepatocyte CLint [8]: 1.8 µL/min/1e6 cells
Papp A→B at […], 1 µM [9]: 25 ×10⁻⁶ cm/s
Papp A→B at […], 0.1 µM [24]: 24 ×10⁻⁶ cm/s
efflux ratio at […], 1 µM [25]: 0.8
hepatocyte CLint [12]: 2.6 µL/min/1e6 cells
solubility [14]: 499 µM (≈ 222 µg/mL)
IC50 [26]: > 31600 nM
logD [18]: 2

CC(C)n1c(=O)n([11CH3])c2cnc3cc(F)c(-c4ccc(OCCCN(C)C)nc4)cc3c21
Kp uu [1]: 0.41
Tmax [2]: 4.5 min
fraction unbound [3]: 0.195
fraction unbound [4]: 0.02

CC(C)n1c(=O)n(C)c2cnc3ccc(-c4ccc(OCCCN5CCC(F)CC5)nc4)cc3c21
hepatocyte CLint [8]: 29 µL/min/1e6 cells
Papp A→B at […], 1 µM [9]: 13 ×10⁻⁶ cm/s
Papp A→B at […], 0.1 µM [24]: 14 ×10⁻⁶ cm/s
hepatocyte CLint [12]: 8.5 µL/min/1e6 cells
solubility [14]: 15 µM (≈ 7.16 µg/mL)
microsomal CLint [27]: 100 µL/min/mg
pKa [15]: 8.5
logD [18]: 3.3

CC(C)n1c(=O)n(C)c2cnc3ccc(-c4ccc(OCCCN5CC[C@H](F)C5)nc4)cc3c21
hepatocyte CLint [8]: 20 µL/min/1e6 cells
Papp A→B at […], 0.1 µM [24]: 19 ×10⁻⁶ cm/s
hepatocyte CLint [12]: 7.2 µL/min/1e6 cells
solubility [14]: 43 µM (≈ 19.9 µg/mL)
IC50 [26]: > 20000 nM
microsomal CLint [27]: 65 µL/min/mg
pKa [15]: 8.1
logD [18]: 3

Cn1c(=O)n(C2CCOCC2)c2c3cc(-c4cccnc4)ccc3ncc21
Kp uu at 2 h [28]: 0.67
logD [18]: 2.2
